Source: article PMC4077696 (PLoS Biology, 2014)
Where a name gives a salt, the structure may show the parent alone.

Tests used:
[1] = system: Human Foreskin Fibroblasts (HFF); assay: Toxicity against Human Foreskin Fibroblasts; assay type: cell-based; conditions: Fibroblast
[2] = biological target: PMV in P. falciparum–infected erythrocytes (Plasmodium falciparum, UniProt Q8I6Z5); assay: PEXEL processing of GFP reporters in parasites by immunoblot; assay type: cell-based; conditions: for PEXEL processing of KAHRP-GFP in parasites, in words / PEXEL processing of PfEMP3-GFP in parasites, in words: 5 h treatment, immunoblot; for PEXEL processing of KAHRP-GFP in parasites, in words: 20 and 50 µM; for PEXEL processing of PfEMP3-GFP in parasites, in words: up to 50 µM
Experimental: To assess whether 916 could inhibit PMV in P. falciparum–infected erythrocytes, parasites expressing the PEXEL protein P. falciparum erythrocyte membrane protein 3 (PfEMP3) fused to green fluorescent protein (GFP) were treated with increasing concentrations of inhibitor, and PEXEL processing was evaluated by immunoblot. […] A GFP-only band, representing degraded chimera in the food vacuole, was also observed at ∼26 kDa (Figure 3A).
Trophozoites (30–34 h) expressing PfEMP3-GFP, KAHRP-GFP, or SERA5s-GFP were magnet-purified (Miltenyi Biotech), incubated with inhibitors in 400 µl total volume at 37°C for 1–5 h, treated with 0.09% saponin containing inhibitor, and washed pellets were solubilized in Laemmli's buffer, boiled for 3 min, and frozen at −20°C. Proteins were separated by SDS-PAGE, transferred to nitrocellulose and blocked in 10% skim milk/PBS-T, and probed with rat α-HA (Roche 3F10; 1∶1,000), mouse α-GFP (Roche; 1∶1,000), rabbit α-Aldolase (1∶1,000), rabbit α-HSP70 (1∶4,000), rabbit α-PfPMV (1∶1,000), or rabbit α-Hyp8 (1∶500) primary antibodies followed by horseradish peroxidase-conjugated secondary antibodies (Silenius) and detected by enhanced chemiluminescence (Amersham).

[3] = system: PfEMP1 surface expression, CS2-GFP parasites; assay: PfEMP1 (VAR2CSA) surface display on infected erythrocytes by flow cytometry with PAM1.4; assay type: cell-based, Plasmodium falciparum; conditions: 15 µM 23 h or 50>15 µM
Experimental: As 916 treatment has adverse affects on parasites after 24 h, a sublethal dosing regime was developed (see Figure S7) to maximize the inhibitor effect while ensuring parasites remained viable 24 h postinvasion when surface-exposed PfEMP1 was measured. Treatment with >15 µM for 23 h or with 50 µM for >12 h postinvasion prior to decreasing to 15 µM adversely affected parasite growth and was avoided.
To measure PfEMP1 display, highly synchronous ring-stage CS2-GFP parasites preferentially expressing VAR2CSA (see Plasmids, Parasites, and Antibody Production) were obtained by incubation of erythrocytes with viable merozoites for 15 min [47], and parasites were treated with 916, 025, or DMSO using the dosage regime above. […] Labeled cells were washed with 0.1% casein/PBS and analyzed on a FACSCalibur cytometer (Becton-Dickinson, USA). Fluorescence in channel FL1 was used to measure parasite-infected erythrocytes (GFP), and fluorescence in channel FL4 was used to measure bound PAM1.4 IgG antibodies (Alexa 633) for each sample. The geometric mean fluorescence of uninfected erythrocytes (treated with secondary and tertiary but not primary antibodies) was deducted from the geometric mean fluorescence of infected erythrocytes using >100,000 cells per condition. […]

[4] = biological target: beta-secretase (BACE-1) (Homo sapiens, UniProt P56817); assay: Off-target activity against human aspartyl protease BACE-1; assay type: biochemical
[5] = biological target: Cathepsin D (Homo sapiens, UniProt P07339); assay: Off-target activity against human aspartyl protease Cathepsin D; assay type: biochemical; conditions: read-out: IC50 CathD
[6] = system: P. falciparum NF54 expressing PMVHA-glmS; assay: Dose-response growth assay of parasites expressing PMVHA-glmS or PMVHA-M9 with or without GlcN; assay type: cell-based, Plasmodium falciparum
Experimental: Parasites expressing PMVHA-glmS were next assessed for toxicity to 916.
(§1) In the case of dose-response curves, medium was kept for the entire experiment; in the case of curves in Figure 4B,C, medium was replaced with inhibitor-free medium at 48 h postinfection. Parasitaemia was always determined at 72 h by flow cytometry. To knock down PMV, GlcN (Sigma) was added to trophozoites and drug curves initiated by adding compound at subsequent rings (24 h) for 24–72 h.

[7] = system: P. falciparum overexpressing PvPMVHA; assay: Dose-response growth assay of parasites overexpressing PvPMVHA; assay type: cell-based, Plasmodium falciparum
Experimental: We next investigated the possible effects of PMV overexpression on parasite sensitivity to 916. […] To control for the carriage of episomes and selection on WR99210, sensitivity to 916 was compared between parasites overexpressing a similar construct on episomes on WR99210 selection (encoding miniVarHA; see Figure 1F).
as §1

[8] = system: Hyp8-GFP export in P. falciparum–infected erythrocytes; assay: Quantification of Hyp8-GFP export and Maurer's clefts by immunofluorescence microscopy; assay type: cell-based, Plasmodium falciparum
Experimental: (§2) For quantification of events in cells infected with parasites expressing Hyp8-GFP, highly synchronous ring-stage parasites engineered to express Hyp8-GFP from the CRT promoter were obtained by incubation of erythrocytes with viable merozoites for 15 min [47] and treated with 20 or 50 µM 916 30 min postinvasion for 13 h (until Hyp8-GFP expression from the CRT promoter had occurred for 1 h). Smears were fixed in 90∶10 acetone∶methanol, labeled with anti-GFP and anti-EXP2 antibodies, and Z-stacks captured on a Deltavision Elite microscope using a 100× objective. Over 40 Z-stacks per condition were imaged using the same exposure settings to allow quantitative analysis between groups.
A parasite mask was generated by combining the signals from the maximum intensity projections of the nuclear (DAPI) and parasitophorous vacuole membrane (EXP2) images and setting a manual threshold. A whole infected erythrocyte mask was produced by manually tracing the cell boundary using the DIC image. Average GFP intensity measurements were determined on masked summed intensity projections of the GFP images using MetaMorph Image Analysis suite (Molecular Devices, USA). Ratios of the average intensity measurements of GFP inside the parasite (inside EXP2) versus exported to the erythrocyte (outside EXP2) were determined.
Clefts were counted using ImageJ's “Find Maxima” function to detect local maxima in the green signal within the masked cell region.

[9] = system: EXP2 secretion in P. falciparum–infected erythrocytes; assay: EXP2 secretion to the parasitophorous vacuole membrane; assay type: cell-based, Plasmodium falciparum; conditions: 20 or 50 µM, 13 h
Experimental: as §2
The EXP2 signal was measured by masking the infected cell using a watershed transform on the summed and filtered red signal, seeded by the DAPI-positive parasite.

PMV in P. falciparum–infected erythrocytes, sequence (Q8I6Z5 whole entry, the tested form may be a part): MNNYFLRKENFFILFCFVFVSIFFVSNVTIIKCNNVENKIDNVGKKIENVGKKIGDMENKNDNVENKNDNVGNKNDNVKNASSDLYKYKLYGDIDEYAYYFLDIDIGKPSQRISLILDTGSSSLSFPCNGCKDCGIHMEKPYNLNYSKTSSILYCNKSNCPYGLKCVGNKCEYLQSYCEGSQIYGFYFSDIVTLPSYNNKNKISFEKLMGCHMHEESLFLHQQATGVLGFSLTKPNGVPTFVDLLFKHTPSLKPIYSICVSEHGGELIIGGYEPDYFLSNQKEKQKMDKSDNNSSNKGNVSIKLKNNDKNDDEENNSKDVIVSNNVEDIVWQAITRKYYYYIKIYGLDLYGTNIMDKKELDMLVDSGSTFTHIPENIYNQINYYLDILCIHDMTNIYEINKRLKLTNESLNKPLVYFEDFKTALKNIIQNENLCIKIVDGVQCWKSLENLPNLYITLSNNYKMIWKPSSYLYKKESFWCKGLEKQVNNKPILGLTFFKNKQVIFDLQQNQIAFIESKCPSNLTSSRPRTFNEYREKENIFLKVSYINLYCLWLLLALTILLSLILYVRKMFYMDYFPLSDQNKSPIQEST
Cathepsin D, sequence (P07339 65-412): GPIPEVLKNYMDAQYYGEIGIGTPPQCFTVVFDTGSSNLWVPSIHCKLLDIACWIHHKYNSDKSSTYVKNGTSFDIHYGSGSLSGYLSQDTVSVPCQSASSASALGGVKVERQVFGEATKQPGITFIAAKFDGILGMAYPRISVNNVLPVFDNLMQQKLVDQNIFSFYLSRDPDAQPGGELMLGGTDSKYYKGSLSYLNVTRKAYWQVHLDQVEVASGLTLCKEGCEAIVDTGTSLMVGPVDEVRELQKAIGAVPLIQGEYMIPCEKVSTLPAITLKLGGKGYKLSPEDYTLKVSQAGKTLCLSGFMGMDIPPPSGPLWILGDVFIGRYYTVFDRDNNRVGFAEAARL
beta-secretase (BACE-1), sequence (P56817 46-501): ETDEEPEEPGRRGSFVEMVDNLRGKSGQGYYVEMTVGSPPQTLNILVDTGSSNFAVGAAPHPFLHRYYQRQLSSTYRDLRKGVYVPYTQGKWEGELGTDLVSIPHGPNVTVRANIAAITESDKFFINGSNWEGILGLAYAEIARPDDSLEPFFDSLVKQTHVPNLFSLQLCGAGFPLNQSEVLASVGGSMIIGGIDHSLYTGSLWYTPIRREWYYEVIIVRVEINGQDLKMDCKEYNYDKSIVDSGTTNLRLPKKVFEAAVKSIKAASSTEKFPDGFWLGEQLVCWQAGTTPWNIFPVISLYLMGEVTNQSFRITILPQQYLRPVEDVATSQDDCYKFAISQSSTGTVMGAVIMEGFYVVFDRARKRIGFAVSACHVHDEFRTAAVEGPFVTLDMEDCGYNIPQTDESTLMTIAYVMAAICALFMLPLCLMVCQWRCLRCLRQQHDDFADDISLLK

Row | SMILES | IC50 [1] [µM] | PEXEL processing of KAHRP-GFP in parasites, in words [2] | PEXEL processing of PfEMP3-GFP in parasites, in words [2] | Effect on PfEMP1 surface expression, in words [3] | IC50 [4] [µM] | IC50 [5] [µM] | Inhibition of PfEMP3-GFP cleavage after 2 to 5 h of treatment ([2]; 2 to 5 h) | Inhibition of PfEMP3-GFP cleavage after 1 h of treatment ([2]; 1 h) | inhibition at 20 µM ([2]; read-out: Rescue of PfEMP3-GFP cleavage inhibition in inhibitor-free medium) [%] | Decrease in EC50 in presence of GlcN, PMVHA-M9 control ([6]; PMVHA-M9 (inactive glmS), with versus without GlcN) [fold] | Decrease in EC50 following PMV knockdown ([6]; PMVHA-glmS, 6 mM GlcN versus no GlcN, 72 h) [fold] | Increase in EC50 with PvPMVHA overexpression versus miniVarHA control ([7]; 5 nM WR99210 selection) [fold] | Increase in EC50 with PvPMVHA overexpression versus wild-type 3D7 ([7]; wild-type 3D7 without WR99210 selection) [fold] | Nonexported Hyp8-GFP signal inside EXP2, in words ([8]; 20 or 50 µM, 13 h) | Hyp8-GFP in Maurer's clefts (exported), in words ([8]; 20 or 50 µM, 13 h from 30 min postinvasion) | Reduction of mean number of GFP-positive Maurer's clefts ([8]; compared to DMSO) | EXP2 signal at the parasitophorous vacuole membrane, in words [9] | Decrease of PfEMP1 surface expression ([3]; 24 h postinvasion)
1 | CC[C@H](C)[C@H](NC(=O)[C@@H](NC(=O)[C@H](CCCNC(=N)N)NS(=O)(=O)Cc1ccccc1)C(C)C)[C@@H](O)CC(=O)NCCc1ccccc1 [compound 025, PhCH2SO2Arg-Val-AHMHpA-NH(CH2)2Ph . TFA] | > 100 | no effect | no effect | no effect | – | – | – | – | – | – | – | – | – | – | – | – | – | –
2 | CC(C)C[C@H](NC(=O)[C@@H](NC(=O)[C@H](CCCNC(=N)N)NS(=O)(=O)Cc1ccccc1)C(C)C)[C@@H](O)CC(=O)NCCc1ccccc1 [compound 916, PhCH2SO2-Arg(NH2)-Val-Sta-NH(CH2)2Ph .TFA] | > 100 | accumulation of both uncleaved (black arrow) and signal peptide-cleaved (red arrow) protein | dose-dependent increase in unprocessed PfEMP3-GFP | – | > 100 | 25 | uncleaved PfEMP3-GFP increased | No effect | ~50 | 1.4 | 3.3 | 1.9 | 1.4 | small but significant increase in nonexported GFP signal | dose-dependent decrease of Hyp8-GFP in MCs | up to 39% | no statistical difference | up to 55%
